Source: the supplement of paper PMC5412046
Where a name gives a salt, the structure may show the parent alone.

Assays:
[1] = system: SB.msgc-1; assay: viability at highest tested concentration (MAXR) relative to DMSO; higher = less cytotoxic; conditions: SB.msgc-1 (sporadic gastric cancer)
Method in brief: (§1)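 Compound in DMSO was pinned (23 nL) at 11 threefold-diluted concentrations into wells containing 500 patient-derived gastric cancer cells, hereditary or sporadic, in 5 μL medium per 1536 well. Cells were incubated for 48 h, then exposed to CellTiter-Glo for 30 min at room temperature. Luminescence was measured on a ViewLux. The values are viability normalised to DMSO, either at the highest concentration or as trapezoidal area under the curve.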

[2] = system: SB.mhdgc-1; assay: as above; conditions: SB.mhdgc-1 (hereditary c.1380delA CDH1 gastric cancer)
Method in brief: as §1

[3] = system: SB.msgc-1; assay: area under the dose-response curve of % viability (trapezoidal, 11 doses) (% viability x log10 concentration); higher = less cytotoxic; conditions: SB.msgc-1 (sporadic gastric cancer)
Method in brief: as §1

[4] = system: SB.mhdgc-1; assay: as above; conditions: SB.mhdgc-1 (hereditary c.1380delA CDH1 gastric cancer)
Method in brief: as §1

Compound | viability [1] [%] | viability [2] [%] | area under the dose-response curve [3] | area under the dose-response curve [4]
COC[C@H](NC(=O)c1cnc(C)s1)C(=O)N[C@@H](COC)C(=O)N[C@@H](Cc1ccccc1)C(=O)[C@@]1(C)CO1 [Oprozomib] (top concentration 46.0829 µM) | 1.92 | 2.05 | 239 | 242
Nc1ncnc2ccccc12 [4-Quinazolinamine] (top concentration 46.0829 µM) | 99.5 | 66.4 | 509 | 545
CO[C@H]1C[C@@H]2CC[C@@H](C)[C@@](O)(O2)C(=O)C(=O)N2CCCC[C@H]2C(=O)O[C@H]([C@H](C)C[C@@H]2CC[C@@H](OP(C)(C)=O)[C@H](OC)C2)CC(=O)[C@H](C)/C=C(\C)[C@@H](O)[C@@H](OC)C(=O)[C@H](C)C[C@H](C)/C=C/C=C/C=C/1C [Ridaforolimus] (top concentration 46.0829 µM) | 70.8 | 73.6 | 475 | 383
Nc1ccc([S+](=O)([O-])Nc2ncccn2)cc1 [Silver sulfadiazine] (top concentration 46.0829 µM) | 80.3 | 54.2 | 511 | 485
CN1C(=O)C[C@H](C(=O)N[C@@H](Cc2cnc[nH]2)C(=O)N2CCC[C@H]2C(N)=O)NC1=O [Taltirelin] (top concentration 46.0829 µM) | 121 | 109 | 563 | 659
Cc1cc(Nc2nc(N[C@@H](C)c3ccc(F)cc3)c(C#N)cc2F)n[nH]1 [AZ-960] (top concentration 46.0829 µM) | 2.72 | 8.67 | 522 | 491
O=c1oc2cc(O)ccc2s1 [Tioxolone] (top concentration 46.0829 µM) | 86.2 | 35.5 | 543 | 577
CC(C)C[C@H](NC(=O)c1cc2ccccc2s1)C(=O)N1CCN(C(=O)[C@H](CO)N[S+](=O)([O-])c2ccc(Cl)cc2Cl)CC1 (top concentration 46.0829 µM) | 22.9 | 3.53 | 502 | 458
Cn1c(Nc2ccc(C(F)(F)F)cc2)nc2cc(Oc3ccnc(-c4nc(C(F)(F)F)c[nH]4)c3)ccc21 [CHIR-265] (top concentration 46.0829 µM) | 48.9 | 57.8 | 454 | 464
O=[S+]([O-])(c1cccc2cnccc12)N1CCCNCC1 [Fasudil] (top concentration 46.0829 µM) | 76.5 | 42.3 | 557 | 480
COc1ccc2c(c[n+](C)c3c4cc5c(cc4ccc23)OCO5)c1OC [Chelerythrine chloride] (top concentration 46.0829 µM) | 2.21 | 2.88 | 464 | 441
C=CCNC1=C2C[C@@H](C)C[C@H](OC)[C@H](O)[C@@H](C)/C=C(\C)[C@H](OC(N)=O)[C@@H](OC)/C=C\C=C(/C)C(=O)NC(=CC1=O)C2=O [Tanespimycin] (top concentration 46.0829 µM) | 18.5 | 3.64 | 326 | 363
COc1ccc(Cc2nccc3cc(OC)c(OC)cc23)cc1OC [Papaverine hydrochloride] (top concentration 46.0829 µM) | 83.5 | 22.3 | 536 | 575
[NH2][Pt]([NH2])([Cl])[Cl] [Cisplatin] (top concentration 46.0829 µM) | 106 | 74.8 | 539 | 546
CC[C@H]1/C=C\C=C/C[C@@H](C)[C@H](O)[C@@](C)(O)C(=O)[C@@H](C)[C@H](O)[C@@H](C)C(=O)[C@@H](C)[C@H](O)[C@@H](C)/C=C/C(=O)O[C@@H]2[C@H](C)[C@H](CC1)O[C@]1(CC[C@H](C)[C@H](C[C@@H](C)O)O1)[C@H]2C [Oligomycin A] (top concentration 46.0829 µM) | 41 | 8.61 | 272 | 280
O=C(NCc1ccccc1)c1csc(Nc2ccncn2)n1 [Thiazovivin] (top concentration 46.0829 µM) | 56.6 | 15.5 | 496 | 413
COc1cc([C@@H]2c3cc4c(cc3[C@@H](O[C@@H]3O[C@@H]5CO[C@@H](C)O[C@H]5[C@H](O)[C@H]3O)[C@H]3COC(=O)[C@H]23)OCO4)cc(OC)c1O [Etoposide] (top concentration 46.0829 µM) | 41.2 | 30.1 | 400 | 264
CC=CC1=C(C(=O)O)N2C(=O)[C@@H](NC(=O)[C@H](N)c3ccc(O)cc3)[C@H]2SC1.O [Cefprozil] (top concentration 46.0829 µM) | 92.3 | 4.42 | 573 | 516
COC/1=C/C=C2\C(=C/C1=O)[C@H](CCC3=CC(=C(OC)C(=C23)OC)OC)NC(C)=O [Colchicine] (top concentration 46.0829 µM) | 35.4 | 55.9 | 223 | 236
O=C(O)c1ccc(-c2c[nH]c3ncc(-c4ccccc4)cc23)cc1C1CCCC1 (top concentration 46.0829 µM) | 89 | 116 | 474 | 484
O=C(/C=C/c1ccc(O)cc1)c1ccc(O)cc1O [Isoliquiritigenin] (top concentration 46.0829 µM) | 67.1 | 100 | 534 | 620

Compound | viability [1] [%] | viability [2] [%] | area under the dose-response curve [3] | area under the dose-response curve [4]
COc1ccc(-c2ccc3c(N4CCOCC4)nc(N4C[C@@H](C)O[C@@H](C)C4)nc3n2)cc1CO (top concentration 46.0829 µM) | 75.5 | 43.4 | 445 | 340
Cc1cccc2c1CC[C@H](CN1CCC(c3c(Cl)cccc3Cl)CC1)C[C@@H]2O (top concentration 46.0829 µM) | 52 | 23.2 | 506 | 506
Cc1nc(-c2ccc(-c3ccc(C(=O)N4CCc5cc6c(cc54)C4(CCN(C)CC4)CO6)cc3)c(C)c2)no1 (top concentration 46.0829 µM) | 87.7 | 114 | 519 | 592
C[C@]12CC[C@@H]3c4ccc(O)cc4C[C@@H](CCCCCCCCC[S+]([O-])CCCC(F)(F)C(F)(F)F)[C@H]3[C@@H]1CC[C@@H]2O (stereo partly drawn) [Fulvestrant] (top concentration 46.0829 µM) | 87.6 | 90.9 | 515 | 531
Cc1ccc(NC(=O)c2ccc(CN3CCN(C)CC3)cc2)cc1Nc1nccc(-c2cccnc2)n1 [Imatinib] (top concentration 46.0829 µM) | 80.2 | 62.3 | 504 | 478
NC(=O)C1CCCc2c1[nH]c1ccc(Cl)cc21 (stereo not drawn) [EX-527] (top concentration 46.0829 µM) | 69.3 | 70.6 | 489 | 521
CC(=O)Oc1ccccc1C(=O)O [Aspirin] (top concentration 46.0829 µM) | 10.1 | 11.5 | 287 | 541
O=[S+]([O-])(CC1CS1)c1ccc(Oc2ccccc2)cc1 (stereo not drawn) [SB-3CT] (top concentration 46.0829 µM) | 57.8 | 8.55 | 497 | 510
Nc1ncnc2nc(-c3ccc(N4CCOCC4)nc3)cc(-c3cccc(Br)c3)c12 [ABT-702] (top concentration 46.0829 µM) | 40.7 | 52.2 | 505 | 596
C[C@@H]1CC[C@@]2(OC1)OC1CC3C4CC=C5CC(O)CCC5(C)C4CCC3(C)C1[C@@H]2C (stereo partly drawn) [Diosgenin] (top concentration 46.0829 µM) | 91.8 | 101 | 453 | 569
CC[C@@]1(O)C(=O)OCC/2=C1/C=C3\N(CC4=CC5=CC(=CC=C5N=C34)O)C2=O [10-hydroxycamptothecin] (top concentration 46.0829 µM) | 23.5 | 57.5 | 327 | 285
C[C@H]1O[C@H](C[C@H](O)[C@@H]1O)O[C@H]2[C@@H](O)C[C@@H](O[C@@H]2C)O[C@H]3[C@@H](O)C[C@@H](O[C@@H]3C)O[C@H]4CC[C@@]5(C)[C@H](CC[C@@H]6[C@@H]5C[C@@H](O)[C@]7(C)[C@H](CC[C@]67O)C/8=C/C(=O)OC8)C4 [Digoxin] (top concentration 92.1659 µM) | 49.9 | 21.9 | 377 | 343
COc1c(C)c2c(c(O)c1C/C=C(\C)CCC(=O)OCCN1CCOCC1)C(=O)OC2 [Mycophenolate mofetil] (top concentration 46.0829 µM) | 55.1 | 88.3 | 510 | 571
C/C=C1\NC(=O)[C@H]2CSSCC/C=C\[C@H](CC(=O)N[C@H](C(C)C)C(=O)N2)OC(=O)[C@H](C(C)C)NC1=O [Romidepsin] (top concentration 46.0829 µM) | 4.4 | 35.1 | 146 | 316
NCC(=O)Nc1ccc(-n2nc(C(F)(F)F)cc2-c2ccc3c(ccc4ccccc43)c2)cc1 (top concentration 46.0829 µM) | 10.9 | 0.199 | 472 | 496
O=[S+]([O-])(CCSSCC[S+](=O)([O-])[O][Na])[O][Na] [Mesna disulfide] (top concentration 46.0829 µM) | 117 | 135 | 552 | 517
CCCCC(C=O)NC(=O)C(CC(C)C)NC(=O)OCc1ccccc1 (stereo not drawn) [Calpeptin] (top concentration 46.0829 µM) | 83.5 | 98.5 | 488 | 507
COc1ccc2c(OCc3nnc4ccc(-c5ccccc5)nn34)ccnc2c1 [AMG-208] (top concentration 46.0829 µM) | 97.7 | 100 | 527 | 558
CCC(C)SSc1ncc[nH]1 (stereo not drawn) [PX-12] (top concentration 46.0829 µM) | 4.17 | 5.12 | 486 | 449
C[C@H]1O[C@H](O[C@H]2[C@H](O)[C@@H](O)[C@H](O[C@@H]2CO)O[C@H]3[C@H](O)[C@@H](O)C(O)O[C@@H]3CO)[C@H](O)[C@@H](O)[C@@H]1N[C@H]4\C=C(CO)/[C@@H](O)[C@H](O)[C@H]4O (stereo partly drawn) [Acarbose] (top concentration 46.0829 µM) | 118 | 104 | 601 | 588
C/C=C(\C)C(=O)N[C@@H](c1ccccc1)[C@@H](O)C(=O)O[C@H]1C[C@@]2(O)[C@@H](OC(=O)c3ccccc3)[C@@H]3[C@]4(OC(C)=O)CO[C@@H]4C[C@H](O)[C@@]3(C)C(=O)[C@H](OC(C)=O)C(=C1C)C2(C)C [Cephalomannine] (top concentration 46.0829 µM) | 38.1 | 42.5 | 190 | 207
